In patent US6809193B2, “Antisense oligonucleotide compositions and methods for the modulation of JNK proteins” (ISIS Pharmaceuticals, Inc., priority 1997, dated 2004):
Strand notation (5' to 3'): a small letter for the sugar, then the base; units joined by * are phosphorothioate-linked, units joined directly phosphodiester-linked; [ ] holds rarer units or linkages, { } end groups; capitals alone tell only the bases. Where a SMILES comes first, the peptide text is derived from it. The star is where a group is joined. e = 2'-O-(2-methoxyethyl) (MOE); [5mC] = 5-methylcytosine; Cbz = O=C(OCc1ccccc1)*; d = 2'-deoxy (DNA); CH2F = FC*

How the values were obtained:
[1] = test system: JNK1 protein; assay: Western assay, JNK1 protein levels in A549 cells; assay type: cell-based, human; conditions: t = 72 h
Description: (§1) In order to evaluate the activity of potential JNK-modulating oligonucleotides, human lung carcinoma cell line A549 (American Type Culture Collection, 10801 University Boulevard, Manassas, Va. 20110-2209, No. ATCC CCL-185) cells or other cell lines as indicated in the Examples, were grown and treated with oligonucleotides or control solutions as detailed below. After harvesting, cellular extracts were prepared and examined for specific JNK mRNA levels or JNK protein levels (i.e., Northern or Western assays, respectively). In all cases, “% expression” refers to the amount of JNK-specific signal in an oligonucleotide-treated cell relative to an untreated cell (or a cell treated with a control solution that lacks oligonucleotide), and “% inhibition” is calculated as
A549 cells were grown and treated with oligonucleotides as described above. […] The amount of each JNK protein was determined by using a primary antibody that specifically recognizes the appropriate JNK protein. […]
In order to assess the effect of oligonucleotides targeted to JNK1 mRNAs on JNK1 protein levels, Western assays were performed essentially as described above in Example 2, with the following exception(s) and/or modification(s). […] The samples from t=48 h and t=72 h were analyzed using the Northern and Western assays described above.

[2] = test system: JNK1 mRNA; assay: Northern assay, JNK1 mRNA expression in A549 cells; assay type: cell-based, human; conditions: for inhibition of JNK1 mRNA expression: 400 nM, Northern assay, Table 5; for RNA % Inhibition: JNK1 mRNA
[3] = test system: HUVEC; assay: Apoptosis in HUVEC, percent hypodiploid cells by flow cytometry; assay type: cell-based, human; conditions: HUVEC treated with JNK2 oligonucleotide plus the agent
[4] = test system: JNK2 mRNA; assay: Northern assay, JNK2 mRNA expression in A549 cells; assay type: cell-based, human; conditions: for dose- and sequence-dependent response on JNK2 mRNA levels: A549 cells, 50, 100, 200 and 400 nM
Description: as §1
100%−%Expression=%Inhibition.
The mRNA expression of each JNK protein was determined by using a nucleic acid probe specifically hybridizable thereto. Nucleic acid probes specific for JNK1, JNK2 and JNK3 are described in Examples 3, 4 and 5, respectively. The probes were radiolabelled by means well known in the art (see, e.g., Short Protocols in Molecular Biology, 2nd Ed., Ausubel et al., Eds., John Wiley & Sons, New York, 1992, pages 3-11 to 2-3-44 and 4-17 to 4-18; Ruth, Chapter 6 In: Methods in Molecular Biology, Vol. 26: Protocols for Oligonucleotide Conjugates, Agrawal, ed., Humana Press Inc., Totowa, N.J., 1994, pages 167-185; and Chapter 10 In: Molecular Cloning: A Laboratory Manual, 2nd Ed., Sambrook et al., Eds., pages 10.1-10.70). The blots were stripped and reprobed with a ^32P-labeled glyceraldehyde 3-phosphate dehydrogenase (G3PDH) probe (Clontech Laboratories, Inc., Palo Alto, Calif.) in order to confirm equal loading of RNA and to allow the levels of JNK transcripts to be normalized with regard to the G3PDH signals.
A549 cells were grown in T-75 flasks until 80-90% confluent. At this time, the cells were washed twice with 10 mL of media (DMEM), followed by the addition of 5 mL of DMEM containing 20 μg/mL of LIPOFECTIN™ (i.e., 1:1 (w/w) DOTMA/DOPE, Life Technologies, Gaithersburg, Md.; DOTMA=N-[1-(2,3-dioleyoxy)propyl]-N,N,N-trimethylammonium chloride; DOPE=dioleoyl phosphatidylethanolamine). The oligonucleotides were added from a 10 μM stock solution to a final concentration of 400 nM, and the two solutions were mixed by swirling the flasks. As a control, cells were treated with LIPOFECTIN™ without oligonucleotide under the same conditions and for the same times as the oligonucleotide-treated samples. After 4 hours at 37° C., the medium was replaced with fresh DMEM containing 10% serum. The cells were allowed to recover for 18 hours. Total cellular RNA was then extracted in guanidinium, subject to gel electrophoresis and transferred to a filter according to techniques known in the art (see, e.g., Chapter 7 In: Molecular Cloning: A Laboratory Manual, 2nd Ed., Sambrook et al., Eds., pages 7.1-7.87, and Short Protocols in Molecular Biology, 2nd Ed., Ausubel et al., Eds., John Wiley & Sons, New York, 1992, pages 2-24 to 2-30 and 4-14 to 4-29). Filters were typically hybridized overnight to a probe specific for the particular JNK gene of interest in hybridization buffer (25 mM KPO4, pH 7.4; 5×SSC; 5× Denhardt's solution, 100 μg/ml Salmon sperm DNA and 50% formamide) (Alahari et al., Nucl. Acids Res., 1993, 21, 4079). This was followed by two washes with 1×SSC, 0.1% SDS and two washes with 0.25×SSC, 0.1% SDS. Hybridizing bands were visualized by exposure to X-OMAT AR film and quantitated using a PHOSPHORIMAGER™ essentially according to the manufacturer's instructions (Molecular Dynamics, Sunnyvale, Calif.).
In initial screenings of a set of oligonucleotides derived from the JNK2 sequence (Table 9) for biological activity, a cDNA clone of JNK2 (Kallunki et al., Genes & Development, 1994, 8, 2996) was radiolabeled and used as a JNK2-specific probe in Northern blots. […]

[5] = test system: MDA-MB-231 tumors; assay: MDA-MB-231 human tumor xenograft in nude mice; assay type: in vivo; conditions: 25 mg/kg intravenous once daily; for Mean Tumor Volume (cm^3): nude mice; for tumor growth compared to the saline control: MDA-MB-231 tumors
Excerpt: Approximately 5×10^6 breast adenocarcinoma cells (cell line MDA-MB-231; American Type Culture Collection, 10801 University Boulevard, Manassas, Va. 20110-2209, No. ATCC HTB-26) were implanted subcutaneously in the right inner thigh of nude mice (n=6 for each of three sets of mice). Oligonucleotides ISIS 15346 (JNK1, SEQ ID NO:16) and 15353 (JNK2, SEQ ID NO:31) were suspended in saline and administered once daily to two sets of mice on the first day the tumor volume was about 100 mm^3. A saline-only (0.9% NaCl) solution was given to a third set of animals as a control. Oligonucleotides were given by intravenous injection at a dosage of 25 mg/kg. Tumor size was measured and tumor volume was calculated on days 12, 19, 26 and 33 following tumor cell inoculation.

[6] = test system: JNK activity; assay: TNFa-induced JNK activity in HUVEC (GST-c-Jun phosphorylation); assay type: cell-based, human; conditions: 100 nM, 5 ng/ml TNFa 15 minutes, compared to a control oligonucleotide

## 15347 (antisense CTCTCTGTAGGCCCGCTTGG; gapmer, 2'-MOE P=O wings, P=S deoxy core, chemistry not fully specified) [compound 15347]
[1]
  Protein % Inhibition: 71.6%
[2]
  inhibition of JNK1 mRNA expression: at least 88%
[2]; t = 48 h, 300 nM for initial 20 hours then 200 nM for 4 hours
  RNA % Inhibition: > 70%
[2]; t = 72 h
  RNA % Inhibition: > 70%

## C[C@@H]1C[C@@H]([C@H](O)CC2CC(=O)NC(=O)C2)C(=O)[C@@H](C)C1 [cyclohexamide]
[3]
  effect on JNK2 oligonucleotide-induced cell death (apoptosis): had no effect on apoptosis

## CTC-TCT-GTA-GGC-CCG-CTT-GG (antisense dC*dT*dC*dT*dC*dT*dG*dT*dA*dG*dG*dC*dC*dC*dG*dC*dT*dT*dG*dG) [ISIS 12539, human JNK1 antisense, fully P=S and fully 2′-deoxy]
[4]
  dose- and sequence-dependent response on JNK2 mRNA levels: dependent on dose in an approximately linear fashion
[2]; A549 cells, 50, 100, 200 and 400 nM
  dose- and sequence-dependent response on JNK1 mRNA levels: dependent on dose in an approximately linear fashion
[2]; JNK1 mRNA time course, 48 h
  % Inhibition: greater than or equal to 80%

## G^ST^SG^SC^SG^SC^SG^SC^SG^SA^SG^SC^SC^SC^SG^SA^SA^SA^ST^SC (GTGCGCGCGAGCCCGAAATC; DNA, all phosphorothioate, methylation of C not given here) [ISIS 14319, 12560 scrambled control, 2′-deoxy-phosphorothioate, reference compound]
[4]
  dose- and sequence-dependent response on JNK2 mRNA levels: neither of the control oligonucleotides effect any consistent response

## C^sT^sC^sT^sC^sT^sG^sT^sA^sG^sG^sC^sC^sC^sG^sC^sT^sT^sG^sG (antisense CTCTCTGTAGGCCCGCTTGG; all phosphorothioate, sugars by position and methylation of C not given here) [ISIS 15346, JNK1 gapmer: P=S, 2′-MOE wings; P=S, 2′-deoxy core]
[5]; Day 12 following tumor cell inoculation
  Mean Tumor Volume (cm^3): 0.122 cm^3
[5]; Day 19
  Mean Tumor Volume (cm^3): 0.255 cm^3
[5]; Day 26
  Mean Tumor Volume (cm^3): 0.400 cm^3
[5]; Day 33
  Mean Tumor Volume (cm^3): 0.638 cm^3
[6]
  inhibition of TNFa-induced JNK activity: approximately 70%

## G^SA^SC^ST^ST^ST^SG^SG^SC^SC^ST^SG^SG^SC^SC^SC^SG^SG^SA^SC (GACTTTGGCCTGGCCCGGAC; DNA, all phosphorothioate, methylation of C not given here) [ISIS 14318, 12560 sense control, 2′-deoxy-phosphorothioate, reference compound]
[4]
  dose- and sequence-dependent response on JNK2 mRNA levels: neither of the control oligonucleotides effect any consistent response

## COC(=O)C[C@H](NC(=O)[C@H](C)NC(=O)[C@@H](NC(=O)OCc1ccccc1)C(C)C)C(=O)CF [z-FAD.fmk, z-VAD.fmk] (Cbz-Val-Ala-Asp(OMe)-CH2F)
[3]
  effect on JNK2 oligonucleotide-induced cell death (apoptosis): decreased

## 15346 (antisense CTCTCTGTAGGCCCGCTTGG; gapmer, 2'-MOE wings, phosphorothioate, chemistry not fully specified) [compound 15346]
[5]
  tumor growth compared to the saline control: inhibited tumor growth compared to the saline control
[1]
  Protein % Inhibition: 74.3%
[2]
  inhibition of JNK1 mRNA expression: at least 88%

## 15353 (antisense eG*eT*e[5mC]*e[5mC]*eG*dG*dG*dC*dC*dA*dG*dG*dC*dC*eA*eA*eA*eG*eT*e[5mC]) [compound 15353]
[4]; 400 nM, Northern assay, Table 12
  inhibition of JNK2 mRNA expression: approximately 80%
[5]
  tumor growth compared to the saline control: inhibited tumor growth compared to the saline control
